Our source for the IC50 values is patent US8207172B2 (Bayer Intellectual Property GmbH, priority 2004, dated 2012).

Each structure is given as a SMILES string. Where only a bound is given, the exact number is not on record here.

Assay [1] deals with BT474 (human breast carcinoma). Briefly: In vitro tumor cell proliferation assay (Cell Titer-Glo luminescent cell viability), BT474. The assay is classed as cell-based. The following applies: BT-474, 72 h, BT474 cells, 72 hours of drug exposure, ATP luminescence readout, read-out: IC50, anti-proliferative activity (inhibition of cell proliferation). An outline of the steps:
(§1)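 Seeding density 2.5×10^3 cells/well; 72 h drug exposure at 37° C; endpoint CellTiter-Glo luminescence, reported as IC50.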
(In general: ATP-based viability assays read luminescence as a measure of living cells.)

For assay [2], the system named is A431 cells (human epidermoid carcinoma). Briefly: In vitro tumor cell proliferation assay (Cell Titer-Glo luminescent cell viability), A431. The following applies: A-431, 72 h, 72 hours of drug exposure, ATP luminescence readout, read-out: IC50, anti-proliferative activity (inhibition of cell proliferation). The assay is classed as cell-based. An outline of the steps: as §1

For the molecule `Fc1cccc(COc2ccc(Nc3ncnc4sc5c(c34)CCc3nn(CCCl)cc3-5)cc2Cl)c1` [Example 79, 2-(2-chloroethyl)-N-{3-chloro-4-[(3-fluorobenzyl)oxy]phenyl}-4,5-dihydro-2H-pyrimido[5′,4′:4,5]thieno[2,3-e]indazol-6-amine], the IC50 was not above 1 µM in assay [1] and not above 50 µM in assay [2].
For `OCCn1ncc2c1CCc1c-2sc2ncnc(Nc3ccc(OCc4cccc(F)c4)c(Cl)c3)c12` [Example 80, 2-[6-({3-chloro-4-[(3-fluorobenzyl)oxy]phenyl}amino)-4,5-dihydro-3H-pyrimido[5′,4′:4,5]thieno[2,3-e]indazol-3-yl]ethanol] the same measures were not above 1 µM and not above 5 µM.
On the same counts, the results for `CN1CCN(CCn2ncc3c2CCc2c-3sc3ncnc(Nc4ccc(OCc5cccc(F)c5)c(Cl)c4)c23)CC1` [Example 82, N-{3-chloro-4-[(3-fluorobenzyl)oxy]phenyl}-3-[2-(4-methylpiperazin-1-yl)ethyl]-4,5-dihydro-3H-pyrimido[5′,4′:4,5]thieno[2,3-e]indazol-6-amine] are not above 1 µM and not above 5 µM.
On the same counts, the results for `Fc1cccc(COc2ccc(Nc3ncnc4sc5c(c34)CCc3c-5cnn3CCn3ccnc3)cc2Cl)c1` [Example 83, N-{3-chloro-4-[(3-fluorobenzyl)oxy]phenyl}-3-[2-(1H-imidazol-1-yl)ethyl]-4,5-dihydro-3H-pyrimido[5′,4′:4,5]thieno[2,3-e]indazol-6-amine] are not above 1 µM and not above 5 µM.
Turning to `COCCNCCn1ncc2c1CCc1c-2sc2ncnc(Nc3ccc(OCc4cccc(F)c4)c(Cl)c3)c12` [Example 84, N-{3-chloro-4-[(3-fluorobenzyl)oxy]phenyl}-3-{2-[(2-methoxyethyl)amino]ethyl}-4,5-dihydro-3H-pyrimido[5′,4′:4,5]thieno[2,3-e]indazol-6-amine], the IC50 was not above 1 µM in assay [1] and not above 5 µM in assay [2].
For `CS(=O)(=O)CCNCCn1ncc2c1CCc1c-2sc2ncnc(Nc3ccc(OCc4cccc(F)c4)c(Cl)c3)c12` [Example 85, N-{3-chloro-4-[(3-fluorobenzyl)oxy]phenyl}-3-(2-{[2-(methylsulfonyl)ethyl]amino}ethyl)-4,5-dihydro-3H-pyrimido[5′,4′:4,5]thieno[2,3-e]indazol-6-amine] the same measures were not above 1 µM and not above 5 µM.
On the same counts, the results for `Fc1cccc(COc2ccc(Nc3ncnc4sc5c(c34)CCc3c-5cnn3CCN3CCOCC3)cc2Cl)c1` [Example 86, N-{3-chloro-4-[(3-fluorobenzyl)oxy]phenyl}-3-(2-morpholin-4-ylethyl)-4,5-dihydro-3H-pyrimido[5′,4′:4,5]thieno[2,3-e]indazol-6-amine] are not above 1 µM and not above 50 µM.
Regarding `Fc1cccc(COc2ccc(Nc3ncnc4sc5c(c34)CCc3c-5cnn3CCN3CCCC3)cc2Cl)c1` [Example 87, N-{3-chloro-4-[(3-fluorobenzyl)oxy]phenyl}-3-(2-pyrrolidin-1-ylethyl)-4,5-dihydro-3H-pyrimido[5′,4′:4,5]thieno[2,3-e]indazol-6-amine], the IC50 in assay [1] is not above 1 µM; in assay [2], not above 5 µM.
On the same counts, the results for `OCCn1ncc2c1CCc1c-2sc2ncnc(Nc3ccc(F)c(Cl)c3)c12` [Example 88, 2-{6-[(3-chloro-4-fluorophenyl)amino]-4,5-dihydro-3H-pyrimido[5′,4′:4,5]thieno[2,3-e]indazol-3-yl}ethanol] are not above 5 µM and not above 5 µM.
For `CS(=O)(=O)OCCn1ncc2c1CCc1c-2sc2ncnc(Nc3ccc(F)c(Cl)c3)c12` [Example 89, 2-{6-[(3-chloro-4-fluorophenyl)amino]-4,5-dihydro-3H-pyrimido[5′,4′:4,5]thieno[2,3-e]indazol-3-yl}ethyl methanesulfonate] the same measures were not above 50 µM and not above 50 µM.
